According to BigSolDB 2.1:

CC(=O)Nc1ccc(OC(=O)c2ccccc2OC(C)=O)cc1
solubility (mole fraction)
Settings | 278.15 K | 283.15 K | 288.15 K | 293.15 K | 298.15 K | 303.15 K | 308.15 K | 313.15 K | 318.15 K
in acetone | 0.00215 | 0.00268 | 0.00353 | 0.00414 | 0.0052 | 0.00593 | 0.00792 | 0.0098 | 0.0123
in acetonitrile | 0.00129 | 0.00153 | 0.00192 | 0.00235 | 0.00275 | 0.00378 | 0.00452 | 0.00575 | 0.00674
in ethanol | 0.000242 | 0.000364 | 0.000497 | 0.000601 | 0.000717 | 0.000987 | 0.00125 | 0.00155 | 0.002
in ethyl acetate | 0.000904 | 0.00109 | 0.00115 | 0.00147 | 0.00179 | 0.00216 | 0.00268 | 0.00325 | 0.00391
in ethyl formate | 0.000965 | 0.00111 | 0.00138 | 0.00165 | 0.00193 | 0.00227 | 0.00299 | 0.00394 | 0.00449
in isobutanol | 0.000204 | 0.000272 | 0.000344 | 0.000485 | 0.000587 | 0.000739 | 0.00107 | 0.00131 | 0.00161
in isopropanol | 0.000153 | 0.000216 | 0.000261 | 0.000314 | 0.000481 | 0.000593 | 0.000833 | 0.00106 | 0.00137
in isopropyl acetate | 0.000329 | 0.000423 | 0.00056 | 0.000886 | 0.00106 | 0.00145 | 0.00189 | 0.00241 | 0.00314
in methanol | 0.000427 | 0.000575 | 0.000718 | 0.000908 | 0.001 | 0.00129 | 0.00171 | 0.0021 | 0.00271
in methyl acetate | 0.000971 | 0.00121 | 0.00155 | 0.00183 | 0.0023 | 0.00267 | 0.0034 | 0.00406 | 0.00481
in n-butanol | 0.000302 | 0.000407 | 0.000517 | 0.000643 | 0.000764 | 0.000939 | 0.00127 | 0.00143 | 0.00174
in n-propanol | 0.000181 | 0.000268 | 0.000361 | 0.000561 | 0.000723 | 0.000994 | 0.0013 | 0.00166 | 0.00222
